What all share (type): cell-based, human
The subject of one assay is A2780 cells. As to the kind of experiment: Pharmacological reactivation of methylated genes by 5-Aza-dC, Affymetrix U133 plus 2 expression arrays, A2780. Conditions: A2780, 5 μM, 24 hours. On the procedure: (§1) Experiments were performed in triplicate using ovarian cancer cell lines A2780 and CaOV3, derived from primary Type II EOC. Cell lines were treated at 30% confluence with 5 μM and 2.5 μMrespectively (concentrations previously optimized to minimize cellular toxicity, data not shown), with the DNA methyltransferase inhibitor 5-aza-2′ deoxycytidine (5-Aza-dC), (Sigma Aldrich, St. Louis Mo., USA) for 24 hours. Cells were then expanded to 90% confluency, media changed every 24 hr before extracting RNA (RNeasy, Qiagen). As a positive control, re-expression and DNA demethylation for the methylated gene DLEC1 was verified by qPCR and clonal bisulphite sequencing.
(§2) Total RNA from A2780 and CaOV3 cell lines, plus and minus treatment with 5-Aza-dC was characterized on the Agilent bioanalyzer RNA nano chip (Agilent, Foster City Calif., USA) for an RNA integrity number (RIN) of >9.0, labeled and hybridized to Affymetrix human genome U133 plus 2 GeneChips essentially according to manufacturer's instructions. The GeneChip scans were analyzed by GCOS (Affymetrix) and resulting probeset intensities normalized by the robust multi-array average (RMA) method (Irizarry, et al., Biostatistics 4: 249-264, 2003). […] The data were normalized separately for each cell line and robust multichip average (RMA) values for analysis were imported into Genespring GX 7.3. Genes re-expressed by 5-Aza-dC were identified as “absent” (undetectable) in all three replicate untreated samples and “present” or “marginal” (detectable) in two of three replicate 5-Aza-dC treated samples.
(§3) Three steps were implemented to identify aberrantly silenced and methylated genes in EOC. First, to identify genes potentially silenced by DNA methylation, genome wide epigenetic reexpression profiles were generated for two ovarian cancer cell lines. […] Genes showing potential methylation-based silencing were identified if they were undetectable in the untreated cells, but re-expressed by 5-Aza-dC treatments. Using these criteria 947 and 1091 probesets were identified in A2780 and CaOV3 cells respectively, that were reactivated.

The test system of another assay is CaOV3 cells. The assay is described as follows: Pharmacological reactivation of methylated genes by 5-Aza-dC, Affymetrix U133 plus 2 expression arrays, CaOV3. Conditions: CaOV3, 2.5 μM, 24 hours. On the procedure: as §1, §2, §3
For another assay, the system named is DLEC1. As to the kind of experiment: Positive control: re-expression and demethylation of DLEC1 (qPCR, clonal bisulphite sequencing). The following applies: A2780 and CaOV3 cells treated with 5-Aza-dC. On the procedure:
as §1

The structures appear in SMILES notation.

On to `Nc1ncn([C@H]2C[C@H](O)[C@@H](CO)O2)c(=O)n1` [5-Aza-dC, 5-aza-2′ deoxycytidine], for which the results for the “probesets reactivated (undetectable in untreated cells, re-expressed by 5-Aza-dC)” value in the assay on A2780 cells (HGU133 plus 2.0) and in the assay with CaOV3 cells (HGU133 plus 2.0) were 947 probesets and 1091 probesets, respectively. The “Fold Change 5-aza-dC vs” value in the assay on A2780 cells (ARMXC1 mRNA, probeset 218694_at) is listed as 1.19; in the assay on A2780 cells (HSPA2 mRNA, probeset 211538_s_at), 33.78; with A2780 cells (IL18 mRNA, probeset 206295_at), 1.20; in the assay with A2780 cells (LTBP2 mRNA, probeset 223690_at), 1.57; in the assay with A2780 cells (PAPLN mRNA, probeset 226435_at), 2.78; in the assay on A2780 cells (PARVA mRNA, probeset 222454_s_at), 1.78. In addition, the “Fold Change 5-aza-dC vs” value with A2780 cells (PEG3 mRNA, probeset 209242_at) came to 3.87; in the assay with A2780 cells (PYCARD mRNA, probeset 221666_s_at) it was 3.72; with A2780 cells (SCIN1 mRNA, probeset 1552365_at) it was 1.28; with A2780 cells (SGNE1 mRNA, probeset 203889_at), 4.15; in the assay on A2780 cells (SOCS1 mRNA, probeset 210001_s_at), 4.80; in the assay on A2780 cells (SPOCK2 mRNA, probeset 202524_s_at), 1.41. In addition, the “Fold Change 5-aza-dC vs” value in the assay on A2780 cells (ZNF177 mRNA, probeset 207417_s_at) was 1.61; in the assay with A2780 cells (ZNF542 mRNA, probeset 239250_at), 2.35; with CaOV3 cells (BMP6 mRNA, probeset 206176_at), 1.25; in the assay on CaOV3 cells (CST6 mRNA, probeset 231248_at), 1.96; in the assay on CaOV3 cells (ICAM4 mRNA, probeset 207194_s_at), 1.89; in the assay on CaOV3 cells (KLF4 mRNA, probeset 220266_s_at), 3.78. The “Fold Change 5-aza-dC vs” value is given as 1.18 in the assay with CaOV3 cells (LOC134466 RNA, probeset 244289_at); 1.32 in the assay with CaOV3 cells (PTGER mRNA, probeset 213933_at); 1.20 in the assay with CaOV3 cells (TLE4 mRNA, probeset 204872_at). The “re-expression and demethylation of the methylated gene DLEC1” value in the assay with DLEC1 was “induce re-expression and demethylation”.

For the origin of these results see US20140106354A1, “Method of Diagnosing Cancer” (GARVAN INSTITUTE OF MEDICAL RESEARCH, priority 2011, published 2014).
